According to US11497212B2, “Substituted thiophenyl uracils, salts thereof and the use thereof as herbicidal agents” (Syngenta Crop Protection AG, priority 2017, dated 2022):
Each block holds one compound with its values, some of them ahead of it.

Experiments:
Assay type in all cases: in vivo
[1] = tested on: Triticum aestivum; experiment: Crop compatibility post-emergence (greenhouse pot trial)
Outline: (§1)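 Crop seeds sown in sandy loam and grown in the greenhouse 2 to 3 weeks were treated at the one-leaf stage. WP or EC formulations were sprayed as aqueous suspension/emulsion with 0.5% additive at 600 L/ha. Damage was scored visually about 3 weeks later versus untreated controls (0% = like control, 100% = dead).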

[2] = tested on: Oryza sativa; experiment: as above; conditions: application rate 20 g/ha
Outline: as §1

[3] = tested on: Glycine max; experiment: as above
Outline: as §1

[4] = tested on: Setaria viridis; experiment: Herbicidal action post-emergence (greenhouse pot trial); conditions: scored visually after about 3 weeks vs untreated controls
Outline: (§2)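 Foliar application post-emergence; water volume 600 L/ha, additive 0.5%, dose ≤80 g/ha. Scoring: visual, ~3 wk, relative to untreated (0–100%).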

[5] = tested on: Amaranthus retroflexus; experiment: as above; conditions: scored visually after about 3 weeks vs untreated controls
Outline: as §2

[6] = tested on: Matricaria inodora; experiment: as above; conditions: scored visually after about 3 weeks vs untreated controls
Outline: as §2

[7] = tested on: Polygonum convolvulus; experiment: as above; conditions: scored visually after about 3 weeks vs untreated controls
Outline: as §2

[8] = tested on: Veronica persica; experiment: as above
Outline: as §2

[9] = tested on: Abutilon theophrasti; experiment: as above; conditions: scored visually after about 3 weeks vs untreated controls
Outline: as §2

[10] = tested on: Viola tricolor; experiment: as above
Outline: as §2

[11] = tested on: Pharbitis purpurea; experiment: as above
Outline: as §2

[12] = tested on: Digitaria sanguinalis; experiment: as above; conditions: application rate 20 g/ha
Outline: as §2

[13] = tested on: Hordeum murinum; experiment: as above; conditions: application rate 20 g/ha, scored visually after about 3 weeks vs untreated controls
Outline: as §2

[14] = tested on: Stellaria media; experiment: as above; conditions: scored visually after about 3 weeks vs untreated controls
Outline: as §2

[15] = tested on: Echinochloa crus-galli; experiment: as above; conditions: application rate 20 g/ha, scored visually after about 3 weeks vs untreated controls
Outline: as §2

[16] = tested on: Zea mays; experiment: Crop compatibility post-emergence (greenhouse pot trial)
Outline: as §1

[17] = tested on: Alopecurus myosuroides; experiment: Herbicidal action post-emergence (greenhouse pot trial); conditions: application rate 20 g/ha, scored visually after about 3 weeks vs untreated controls
Outline: as §2

[18] = tested on: Zea mays; experiment: Crop compatibility pre-emergence (greenhouse pot trial); conditions: application rate 20 g/ha, effect vs untreated controls
Text: (§3) Seeds of mono- and dicotyledonous weeds and crop plants were laid out in plastic or organic plant pots and covered with soil. The compounds of the invention formulated in the form of wettable powders (WP) or emulsion concentrates (EC) were then applied to the surface of the covering soil as an aqueous suspension or emulsion with addition of 0.5% additive at a water application rate equivalent to 600 L/ha. After the treatment, the pots were placed in a greenhouse and kept under good growth conditions for the test plants. After about 3 weeks, the efficacy of the preparations was scored visually as a percentage by comparison with untreated controls. For example, 100% efficacy=plants have died, 0% efficacy=like control plants.
Crop compatibilities were also scored correspondingly.
The effects observed are reported here on selected crop plants by comparison with the untreated controls (values in %).

[19] = tested on: Setaria viridis; experiment: Herbicidal action pre-emergence (greenhouse pot trial); conditions: application rate 320 g/ha, scored after about 3 weeks
Text: as §3, with “control plants. Tables B1 to B16 below show the efficacies of selected compounds of the general formula (I) according to tables I.1 to I.60 on various harmful plants and an application rate corresponding to 320 g/ha or lower that were obtained by the aforementioned trial method.” for “control plants.”

[20] = tested on: Alopecurus myosuroides; experiment: as above; conditions: application rate 320 g/ha, scored after about 3 weeks
Text: as §3, with “control plants. Tables B1 to B16 below show the efficacies of selected compounds of the general formula (I) according to tables I.1 to I.60 on various harmful plants and an application rate corresponding to 320 g/ha or lower that were obtained by the aforementioned trial method.” for “control plants.”

[21] = tested on: Amaranthus retroflexus; experiment: as above; conditions: application rate 320 g/ha, scored after about 3 weeks
Text: as §3, with “control plants. Tables B1 to B16 below show the efficacies of selected compounds of the general formula (I) according to tables I.1 to I.60 on various harmful plants and an application rate corresponding to 320 g/ha or lower that were obtained by the aforementioned trial method.” for “control plants.”

[22] = tested on: Hordeum murinum; experiment: as above; conditions: application rate 320 g/ha
Text: as §3, with “control plants. Tables B1 to B16 below show the efficacies of selected compounds of the general formula (I) according to tables I.1 to I.60 on various harmful plants and an application rate corresponding to 320 g/ha or lower that were obtained by the aforementioned trial method.” for “control plants.”

[23] = tested on: Matricaria inodora; experiment: as above; conditions: application rate 320 g/ha, scored after about 3 weeks
Text: as §3, with “control plants. Tables B1 to B16 below show the efficacies of selected compounds of the general formula (I) according to tables I.1 to I.60 on various harmful plants and an application rate corresponding to 320 g/ha or lower that were obtained by the aforementioned trial method.” for “control plants.”

[24] = tested on: Veronica persica; experiment: as above; conditions: application rate 320 g/ha
Text: as §3, with “control plants. Tables B1 to B16 below show the efficacies of selected compounds of the general formula (I) according to tables I.1 to I.60 on various harmful plants and an application rate corresponding to 320 g/ha or lower that were obtained by the aforementioned trial method.” for “control plants.”

[25] = tested on: Stellaria media; experiment: as above; conditions: application rate 320 g/ha, scored after about 3 weeks
Text: as §3, with “control plants. Tables B1 to B16 below show the efficacies of selected compounds of the general formula (I) according to tables I.1 to I.60 on various harmful plants and an application rate corresponding to 320 g/ha or lower that were obtained by the aforementioned trial method.” for “control plants.”

[26] = tested on: Lolium rigidum; experiment: as above; conditions: application rate 320 g/ha
Text: as §3, with “control plants. Tables B1 to B16 below show the efficacies of selected compounds of the general formula (I) according to tables I.1 to I.60 on various harmful plants and an application rate corresponding to 320 g/ha or lower that were obtained by the aforementioned trial method.” for “control plants.”

[27] = tested on: Abutilon theophrasti; experiment: as above; conditions: application rate 320 g/ha, scored after about 3 weeks
Text: as §3, with “control plants. Tables B1 to B16 below show the efficacies of selected compounds of the general formula (I) according to tables I.1 to I.60 on various harmful plants and an application rate corresponding to 320 g/ha or lower that were obtained by the aforementioned trial method.” for “control plants.”

[28] = tested on: Viola tricolor; experiment: as above; conditions: application rate 320 g/ha, scored after about 3 weeks
Text: as §3, with “control plants. Tables B1 to B16 below show the efficacies of selected compounds of the general formula (I) according to tables I.1 to I.60 on various harmful plants and an application rate corresponding to 320 g/ha or lower that were obtained by the aforementioned trial method.” for “control plants.”

[29] = tested on: Echinochloa crus-galli; experiment: as above; conditions: application rate 320 g/ha, scored after about 3 weeks
Text: as §3, with “control plants. Tables B1 to B16 below show the efficacies of selected compounds of the general formula (I) according to tables I.1 to I.60 on various harmful plants and an application rate corresponding to 320 g/ha or lower that were obtained by the aforementioned trial method.” for “control plants.”

[30] = tested on: Avena fatua; experiment: as above; conditions: application rate 320 g/ha
Text: as §3, with “control plants. Tables B1 to B16 below show the efficacies of selected compounds of the general formula (I) according to tables I.1 to I.60 on various harmful plants and an application rate corresponding to 320 g/ha or lower that were obtained by the aforementioned trial method.” for “control plants.”

[31] = tested on: Pharbitis purpurea; experiment: as above; conditions: application rate 320 g/ha
Text: as §3, with “control plants. Tables B1 to B16 below show the efficacies of selected compounds of the general formula (I) according to tables I.1 to I.60 on various harmful plants and an application rate corresponding to 320 g/ha or lower that were obtained by the aforementioned trial method.” for “control plants.”

Structure (SMILES): Cc1c(C(F)(F)F)n(C)c(=O)n(-c2cc(SC(CC(C)C)C(=O)OCC3CCOC3)c(Cl)cc2F)c1=O (stereo not shown) [I.14-72]
- Triticum aestivum (Efficacy in %) ([1]; application rate 20 g/ha): 20%
- Oryza sativa (Efficacy in %) [2]: 0%
- Glycine max (Efficacy in %) ([3]; application rate 20 g/ha): 20%
- Setaria viridis (Efficacy in %) ([4]; application rate 20 g/ha): 100%
- Amaranthus retroflexus (Efficacy in %) ([5]; application rate 20 g/ha): 100%
- Matricaria inodora (Efficacy in %) ([6]; application rate 20 g/ha): 80%
- Polygonum convolvulus (Efficacy in %) ([7]; application rate 20 g/ha): 80%
- Veronica persica (Efficacy in %) ([8]; application rate 20 g/ha): 100%
- Abutilon theophrasti (Efficacy in %) ([9]; application rate 20 g/ha): 80%
- Viola tricolor (Efficacy in %) ([10]; application rate 20 g/ha): 100%
- Pharbitis purpurea (Efficacy in %) ([11]; application rate 20 g/ha): 80%

Structure (SMILES): CC(Sc1cc(-n2c(=O)cc(C(F)(F)F)n(C)c2=O)c(F)cc1Cl)C(=O)OCCCSC(F)(F)F (stereo not shown) [I.1-48]
- Triticum aestivum (Efficacy in %) ([1]; application rate 5 g/ha): 10%
- Setaria viridis (Efficacy in %) ([4]; application rate 20 g/ha): 100%
- Digitaria sanguinalis (Efficacy in %) [12]: 100%
- Amaranthus retroflexus (Efficacy in %) ([5]; application rate 20 g/ha): 100%
- Hordeum murinum (Efficacy in %) [13]: 80%
- Matricaria inodora (Efficacy in %) ([6]; application rate 20 g/ha): 100%
- Polygonum convolvulus (Efficacy in %) ([7]; application rate 20 g/ha): 100%
- Veronica persica (Efficacy in %) ([8]; application rate 20 g/ha): 100%
- Stellaria media (Efficacy in %) ([14]; application rate 20 g/ha): 100%
- Abutilon theophrasti (Efficacy in %) ([9]; application rate 20 g/ha): 100%
- Viola tricolor (Efficacy in %) ([10]; application rate 20 g/ha): 100%
- Echinochloa crus-galli (Efficacy in %) [15]: 100%
- Pharbitis purpurea (Efficacy in %) ([11]; application rate 20 g/ha): 100%

Structure (SMILES): C=CCN(C(=O)C(C)Sc1cc(-n2c(=O)cc(C(F)(F)F)n(C)c2=O)c(F)cc1Cl)C(C)COC (stereo not shown) [I.1-335]
- Zea mays (Efficacy in %) ([16]; application rate 80 g/ha): 10%
- Triticum aestivum (Efficacy in %) ([1]; application rate 80 g/ha): 20%
- Oryza sativa (Efficacy in %) [2]: 10%
- Setaria viridis (Efficacy in %) ([4]; application rate 80 g/ha): 100%
- Amaranthus retroflexus (Efficacy in %) ([5]; application rate 80 g/ha): 100%
- Matricaria inodora (Efficacy in %) ([6]; application rate 80 g/ha): 100%
- Polygonum convolvulus (Efficacy in %) ([7]; application rate 80 g/ha): 100%
- Veronica persica (Efficacy in %) ([8]; application rate 80 g/ha): 100%
- Stellaria media (Efficacy in %) ([14]; application rate 80 g/ha): 100%
- Abutilon theophrasti (Efficacy in %) ([9]; application rate 80 g/ha): 100%
- Viola tricolor (Efficacy in %) ([10]; application rate 80 g/ha): 100%
- Pharbitis purpurea (Efficacy in %) ([11]; application rate 80 g/ha): 100%
- Zea mays (Efficacy in %) [18]: 20%
- Setaria viridis (Efficacy in %) [19]: 100%
- Alopecurus myosuroides (Efficacy in %) [20]: 90%
- Amaranthus retroflexus (Efficacy in %) [21]: 100%
- Hordeum murinum (Efficacy in %) [22]: 90%
- Matricaria inodora (Efficacy in %) [23]: 100%
- Veronica persica (Efficacy in %) [24]: 100%
- Stellaria media (Efficacy in %) [25]: 100%
- Lolium rigidum (Efficacy in %) [26]: 100%
- Abutilon theophrasti (Efficacy in %) [27]: 100%
- Viola tricolor (Efficacy in %) [28]: 100%
- Echinochloa crus-galli (Efficacy in %) [29]: 100%
- Avena fatua (Efficacy in %) [30]: 100%
- Pharbitis purpurea (Efficacy in %) [31]: 100%

More lines, main results first:

- Zea mays (Efficacy in %) ([16]; application rate 20 g/ha): 0%
- Triticum aestivum (Efficacy in %) ([1]; application rate 20 g/ha): 0%
- Oryza sativa (Efficacy in %) [2]: 0%
- Glycine max (Efficacy in %) ([3]; application rate 20 g/ha): 0%
Structure (SMILES): Cc1c(C(F)(F)F)n(C)c(=O)n(-c2cc(SC(CC(C)C)C(=O)OCC3CCCO3)c(Cl)cc2F)c1=O (stereo not shown) [I.14-71]
- Amaranthus retroflexus (Efficacy in %) ([5]; application rate 20 g/ha): 100%
- Veronica persica (Efficacy in %) ([8]; application rate 20 g/ha): 100%
- Abutilon theophrasti (Efficacy in %) ([9]; application rate 20 g/ha): 100%
- Pharbitis purpurea (Efficacy in %) ([11]; application rate 20 g/ha): 100%

- Zea mays (Efficacy in %) ([16]; application rate 5 g/ha): 0%
- Triticum aestivum (Efficacy in %) ([1]; application rate 5 g/ha): 0%
- Oryza sativa (Efficacy in %) [2]: 0%
- Glycine max (Efficacy in %) ([3]; application rate 5 g/ha): 0%
Structure (SMILES): CCC(Sc1cc(-n2c(=O)c(C)c(C(F)(F)F)n(C)c2=O)c(F)cc1Cl)C(=O)OCC1CCCCO1 (stereo not shown) [I.12-91]
- Setaria viridis (Efficacy in %) ([4]; application rate 20 g/ha): 80%
- Alopecurus myosuroides (Efficacy in %) [17]: 80%
- Amaranthus retroflexus (Efficacy in %) ([5]; application rate 20 g/ha): 100%
- Matricaria inodora (Efficacy in %) ([6]; application rate 20 g/ha): 80%
- Polygonum convolvulus (Efficacy in %) ([7]; application rate 20 g/ha): 80%
- Veronica persica (Efficacy in %) ([8]; application rate 20 g/ha): 100%
- Stellaria media (Efficacy in %) ([14]; application rate 20 g/ha): 100%
- Abutilon theophrasti (Efficacy in %) ([9]; application rate 20 g/ha): 100%
- Viola tricolor (Efficacy in %) ([10]; application rate 20 g/ha): 100%
- Echinochloa crus-galli (Efficacy in %) [15]: 100%
- Pharbitis purpurea (Efficacy in %) ([11]; application rate 20 g/ha): 100%
